The source of these data is publication PMC10885115, “Susceptibility of Tetranychus urticae to the Alkaloidal Extract of Zanthoxylum schreberi Bark: Phenotypic and Biochemical Insights for Biotechnological Exploitation” (BioTech, 2024).

In data set [1] the test system is T. urticae adult females (exposed mite population). Nature of the data set: Fecundity (oviposition) test for extract combined with commercial acaricides. Format: in vivo, Tetranychus urticae. The conditions noted are these: 0.06% chlorfenapyr, 0.075% cyflumetofen, 0.05% abamectin, 0.5% extract and combinations M2 to M4; surviving females after 72 h exposure. On the procedure: (§1) Using the same methodology described in the previous section, the following treatments were evaluated in this test: absolute control (application of distilled water), relative control (10% ethanol), positive control A (clorfenapyr at 0.06%), positive control B (cyflumetofen at 0.075%), positive control C (abamectin at 0.05%), treatment 1 (0.5% extract), treatment 2 (0.5% extract + 0.06% clorfenapyr), treatment 3 (0.5% extract + 0.075% cyflumetofen), and treatment 4 (0.5% extract + 0.05% abamectin). Mortality assessments were conducted at 24, 48, and 72 h post-treatment application and adjusted using the Schneider–Orelli formula (Equation (1)). Fecundity was also measured by isolating five surviving females per treatment (after 72 h of exposure to treatments) in petri dishes. The number of eggs oviposited by each female was counted every 24 h over 5 days. Simultaneously with the susceptibility test, the repellent effect of the extract was measured by counting the number of surviving females placed outside the leaves after 24, 48, and 72 h. All laboratory tests were conducted under controlled conditions at 25 ± 2 °C, 60 ± 5% relative humidity, and a 12:12 (light/dark) photoperiod.

Data set [2] has the same test system. Nature of the data set: Mortality test for extract combined with commercial acaricides (exposed mites). The format is in vivo, Tetranychus urticae. On the procedure:
as §1

The test system of a further data set is T. urticae. The conditions noted are these: cited from earlier work.
Data set [3] has as its system T. cinnabarinus Boisdu-Val. Set-up: method as in PMID 24861930. The conditions noted are these: resistant strain; cited from earlier work.
Another data set addresses general esterases. Nature of the data set: General esterase inhibition in T. urticae protein homogenate. Format: biochemical, Tetranychus urticae. The conditions noted are these: pure compounds, read-out: Est IC50 (95% interval confidence). On the procedure: (§2) The protein homogenate from T. urticae adult females (n = 50) was prepared by homogenizing them in 500 μL of 0.1 M phosphate buffer (pH 7.2) in an ice bath. After homogenization, the mixture was centrifuged at 12,000× g for 20 min at 4 °C. Both untreated mites and those treated with 0.5% Z. schreberi bark extract were processed similarly. The protein content within the homogenate was quantified using the linearized Bradford micromethod, employing bovine serum albumin as an external standard. A calibration curve was established based on the ratio of absorbance measurements at 590 nm and 450 nm, ensuring linearity with varying protein concentrations. The resulting supernatant was subsequently stored at −20 °C for further enzyme analysis.
Enzyme activity of general esterases was assessed using p-nitrophenylacetate as substrate, following a previous procedure. In brief, the protein homogenate (10 µL) was mixed in a microtiter plate well with 1 mM p-nitrophenyl acetate (200 µL) in 50 mM phosphate buffer pH 7.4. The absorbance was measured at 405 nm after a 10 min incubation period using a Varioskan LUX 96-well plate reader (Thermo Fisher Scientific, Waltham, MA, USA). The specific esterase activity was calculated using the kinetic slope to convert μmoles of product per minute (6.53 mM^−1cm^−1 and 0.3 cm), thereby determining the specific enzyme activity expressed as μmol of substrate/min/mg protein.
(§3) Further investigation involved determining the inhibition of the test enzymes (i.e., AChE, GST, esterase, and PMO). […] The final absorbance measurements of each treatment (At) and control (Ac) were related to the calculated enzyme inhibition percentage using Equation (3). (3) Enzyme Inhibition (%)=[…]
(§4) This determination was performed for each treatment concentration (extract and purified compound) to establish dose–response curves. The IC50 (half-maximal inhibitory concentration in μg/mL for extract and μM for pure compounds) was calculated via nonlinear regression analysis using GraphPad 7.0 (GraphPad Software LLC, Boston, MA, USA).

Data set [4] addresses glutathione S-transferase (GST). Nature of the data set: GST inhibition in T. urticae protein homogenate. The conditions noted are these: pure compounds, read-out: GST IC50 (95% interval confidence). The format is biochemical, Tetranychus urticae. On the procedure: as §2
GST activity was assessed using 1-chloro-2, 4-dinitrobenzene (CDNB) as the substrate, following a previous procedure. Briefly, the reaction was initiated by mixing CDNB (50 mM in ethanol, 50 µL) and reduced glutathione (50 mM in 0.1 M phosphate-buffered saline (PBS), pH 6.5, 150 µL) in a 5 mL vial with phosphate buffer (0.1 M, pH 6.5 containing 1 mM EDTA, 2.78 mL). Subsequently, 20 µL of protein homogenate was added, and the solution was thoroughly mixed. An aliquot (200 µL) from the resulting mixture was dispensed into a microtiter plate well for measurement, with the procedure performed in triplicate for both biological and technical replicates. The absorbance of each reaction mixture at 340 nm was then recorded using kinetics on a Varioskan LUX 96-well plate reader (Thermo Fisher Scientific, Waltham, MA, USA) after a 10 min duration. The specific GST activity was calculated using the kinetic slope to convert μmoles of product per minute (9.6 mM^−1cm^−1 and 0.3 cm), thereby determining the specific enzyme activity expressed as μmol of substrate/min/mg protein.
as §3, §4

A further data set concerns P450 monooxygenase (PMO). Nature of the data set: PMO inhibition in T. urticae protein homogenate. The conditions noted are these: pure compounds, read-out: PMO IC50 (95% interval confidence). Format: biochemical, Tetranychus urticae. How it is done: as §2
The PMO activity was measured by reducing hydrogen peroxide to oxidize 3,3′,5,5′-tetramethylbenzidine (TMBZ), following a previous procedure. Briefly, the protein homogenate (20 µL) was mixed in a microtiter plate well with 6 mM TMBZ (200 µL) working solution (TMBZ (0.01 g) in methanol (5 mL) and 0.25 M sodium acetate (pH 5.0, 15 mL)) and 3% H2O2 (25 µL) for 30 min at 25 °C. After this incubation period, the absorbance was read at 630 nm on a Varioskan LUX 96-well plate reader (Thermo Fisher Scientific, Waltham, MA, USA). The standard curve of heme peroxidase activity was prepared using Cytochrome C from equine heart (Merck, Milwakee, WI, USA). Total Cytochrome P450 monoxygenase was expressed as µmoles of Cytochrome P450 equivalent units (CPEU)/min/mg protein.
as §3, §4

Data set [5] has as its target T1, acetylcholinesterase (AChE) (Tetranychus urticae, UniProt D8V7J9).
T1 sequence (D8V7J9 74-665): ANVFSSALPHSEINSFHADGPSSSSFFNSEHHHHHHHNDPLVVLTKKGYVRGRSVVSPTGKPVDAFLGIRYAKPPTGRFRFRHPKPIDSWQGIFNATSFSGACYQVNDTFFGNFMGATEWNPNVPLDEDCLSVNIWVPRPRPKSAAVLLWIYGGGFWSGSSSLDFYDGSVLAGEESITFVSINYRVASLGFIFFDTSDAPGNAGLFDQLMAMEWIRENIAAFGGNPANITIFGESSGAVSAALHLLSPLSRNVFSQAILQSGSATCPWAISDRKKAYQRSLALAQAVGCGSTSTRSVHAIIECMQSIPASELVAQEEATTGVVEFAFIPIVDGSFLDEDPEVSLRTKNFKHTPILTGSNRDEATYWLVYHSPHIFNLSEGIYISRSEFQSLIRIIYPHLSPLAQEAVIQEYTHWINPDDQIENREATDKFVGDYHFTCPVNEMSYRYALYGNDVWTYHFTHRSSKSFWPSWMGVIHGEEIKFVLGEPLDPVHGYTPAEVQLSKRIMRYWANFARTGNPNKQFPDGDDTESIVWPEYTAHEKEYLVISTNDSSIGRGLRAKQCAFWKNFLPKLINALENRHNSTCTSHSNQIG
The format is biochemical. The conditions noted are these: pure compounds; T. urticae protein homogenate; read-out: AChE IC50 (95% interval confidence).
Protocol: The protein homogenate from T. urticae adult females (n = 50) was prepared by homogenizing them in 500 μL of 0.1 M phosphate buffer (pH 7.2) in an ice bath. After homogenization, the mixture was centrifuged at 12,000× g for 20 min at 4 °C. […] The protein content within the homogenate was quantified using the linearized Bradford micromethod [40], employing bovine serum albumin as an external standard. A calibration curve was established based on the ratio of absorbance measurements at 590 nm and 450 nm, ensuring linearity with varying protein concentrations [40]. The resulting supernatant was subsequently stored at −20 °C for further enzyme analysis.
The Ellman method was employed to assess AChE activity in both untreated and Z. schreberi-treated mites, following a previous procedure [41]. […]
Further investigation involved determining the inhibition of the test enzymes (i.e., AChE, GST, esterase, and PMO). […] The final absorbance measurements of each treatment (At) and control (Ac) were related to the calculated enzyme inhibition percentage using Equation (3). […]

In data set [6] the target is acetylcholinesterase (AChE) and butyrylcholinesterase (BuChE) from various sources. Set-up: method as in PMID 37073143. The conditions noted are these: most potent of 34 isoquinoline alkaloids; cited from earlier work.
In data set [7] the test system is T. urticae adult females (exposed mite population). Nature of the data set: Repellency test for Z. schreberi bark extract using exposed mites. The format is in vivo, Tetranychus urticae. The conditions noted are these: 0.06% chlorfenapyr.
For data set [8] the test system is unchanged. Nature of the data set: Mortality test for Z. schreberi bark extract using exposed mites (leaf-immersion). The format is in vivo, Tetranychus urticae. The conditions noted are these: 0.06% chlorfenapyr (PC, commercially recommended dose). The text has this: The experimental setup involved a transparent cylindrical container with a 3.5 cm diameter filter paper disk placed at the bottom, moistened with distilled water. Bean leaf disks, previously immersed in the respective extract solution and air-dried, were then positioned on the paper disk. The container lid underwent modification, featuring a centrally located circular opening. A metal mesh, perforated with small holes, was affixed using silicone around this opening to facilitate ventilation and prevent mites from escaping. Concentrations ranging from 2, 1, 0.5, and 0.25, to 0.125% of the Z. schreberi bark alkaloidal extract were evaluated diluted in 10% ethanol. These concentrations were selected since they comprise typical doses for botanical pesticides, and, consequently, they were standardized in previous studies in our laboratory to assess botanical extracts. Additionally, three control treatments were employed: an absolute control (application of distilled water), a relative control (10% ethanol), and a positive control (clorfenapyr at 0.06%). Mortality assessments were conducted at 24, 48, and 72 h post-treatment application. The obtained mortality data were adjusted using Schneider–Orelli’s formula (Equation (1)). […]

The test system of data set [9] is T. urticae females from the unexposed rearing system. Nature of the data set: Preliminary mortality test with unexposed mites. The format is in vivo, Tetranychus urticae. The conditions noted are these: 0.4% chlorfenapyr (positive control), airbrush application. How it is done: A preliminary trial was conducted to determine the effect of Z. schreberi alkaloidal extract on mites for subsequent experiments, following the methodology outlined by Numa et al. (2015), with certain modifications. Briefly, the bioassay comprised a bean leaf with its underside facing upward, which was placed in a petri dish and its edges lined with cotton moistened using distilled water. Ten T. urticae females from the unexposed rearing system were situated on each leaf. The bioassay on females was driven by their pivotal role in population dynamics, as they are the primary contributors to new individuals. The net reproductive rate per generation (Ro) or population replacement rate is directly dependent on female reproductive capabilities. Consequently, any lethal or sublethal effects observed in females and oviposition will directly influence population growth. This approach led us to assess the potential of the extracts as a promising strategy for pest control, considering their impact on the crucial factor of population expansion. Subsequently, each dish was sealed with plastic wrap post-application of treatments. The evaluated treatments comprised an absolute control (mites without any application), a positive control (chlorfenapyr at 0.4%), and the alkaloidal extract of Z. schreberi at 2%. […] Deceased mites were counted 24 h post-application.

“And” between values parts separate entries of the source, which are not always exact repeats. Identical values can stand only once. Like-named read-outs stand apart in the source and are kept apart here.

Take `COCCOC(=O)C(C#N)(C(=O)c1ccccc1C(F)(F)F)c1ccc(C(C)(C)C)cc1` (stereo not shown) [cyflumetofen]: the “Average fecundity per female over 5 days compared to controls AC and RC” value in data set [1] is “statistically significant reduction”. Moreover, in [2] (0.075% cyflumetofen alone (PCB)), the “Corrected average mortality after 72 h” value is given as 32.5%. Further, the LD50 is 0.00011% in the data set with T. urticae (susceptible strain of T. urticae) and 0.0016% in data set [3].

Consider `COc1ccc2cc3[n+](cc2c1O)CCc1cc2c(cc1-3)OCO2` [Compound 3, berberrubine], for which the IC50 on general esterases is greater than 300 µM; in [4] it was 5.61 µM; with P450 monooxygenase (PMO), 62.7 µM.

In the case of `COc1ccc2c(c[n+](C)c3c4cc5c(cc4ccc23)OCO5)c1OC` [Compound 4, chelerythrine], the values for the IC50 (at general esterases; in [4]; in the data set with P450 monooxygenase (PMO)) were greater than 300 µM, 11.7 µM and 89.6 µM, respectively.

Regarding abamectin, the “Average fecundity per female over 5 days compared to controls AC and RC” value in [1] is reported as “statistically significant reduction”.

With fagaridine [Compound 5], the IC50 in [5] was 14.6 µM; on general esterases it was greater than 300 µM; in [4] it was 112 µM; in the data set on P450 monooxygenase (PMO), 20.9 µM.

For `COc1ccc2cc3[n+](cc2c1OC)CCc1cc2c(cc1-3)OCO2` [Compound 6, berberine], the IC50 at general esterases was greater than 300 µM; in data set [4], 1.24 µM; with P450 monooxygenase (PMO), 386 µM; in data set [6], 0.72 µg/mL.

In the case of `COc1c(O)ccc2cnc3c4cc5c(cc4ccc3c12)OCO5` [Compound 9, zanthoxyline], the IC50 on general esterases was determined as 289 µM; in data set [4] it was 21.5 µM; in the data set with P450 monooxygenase (PMO), 8.37 µM.

On to `CCOCn1c(-c2ccc(Cl)cc2)c(C#N)c(Br)c1C(F)(F)F` [chlorfenapyr], for which the “Repellency after 72 h” value in data set [7] is “lowest repellency”. Besides, the “Average fecundity per female over 5 days compared to controls AC and RC” value in data set [1] is listed as “statistically significant reduction”. Moreover, the “Corrected average mortality after 72 h” value in data set [8] was 24.6%; in [2] (0.06% chlorfenapyr alone (PCA)), 20.9%. The LD50 in the data set on T. urticae (two resistant strains of T. urticae, listed as clorfenapyr) is 0.08% and 0.29%. Besides, the “Corrected mortality after 24 h” value in [9] worked out at 93.3%.

The term IC50 denotes the point on the concentration scale where inhibition reaches its midpoint.
